Results reported in BindingDB's records for doi:10.1016/j.ejmech.2016.03.016 (Peking University, 2016).

Biological target: Neuronal acetylcholine receptor subunit alpha-7 (Homo sapiens, UniProt P36544)
Assay: Agonist activity at human alpha7 nAChR expressed in xenopus oocytes preincubated for 10 mins followed by acetylcholine addition by patch clamp electrophysiological assay

Sequence of Neuronal acetylcholine receptor subunit alpha-7 (P36544 whole entry): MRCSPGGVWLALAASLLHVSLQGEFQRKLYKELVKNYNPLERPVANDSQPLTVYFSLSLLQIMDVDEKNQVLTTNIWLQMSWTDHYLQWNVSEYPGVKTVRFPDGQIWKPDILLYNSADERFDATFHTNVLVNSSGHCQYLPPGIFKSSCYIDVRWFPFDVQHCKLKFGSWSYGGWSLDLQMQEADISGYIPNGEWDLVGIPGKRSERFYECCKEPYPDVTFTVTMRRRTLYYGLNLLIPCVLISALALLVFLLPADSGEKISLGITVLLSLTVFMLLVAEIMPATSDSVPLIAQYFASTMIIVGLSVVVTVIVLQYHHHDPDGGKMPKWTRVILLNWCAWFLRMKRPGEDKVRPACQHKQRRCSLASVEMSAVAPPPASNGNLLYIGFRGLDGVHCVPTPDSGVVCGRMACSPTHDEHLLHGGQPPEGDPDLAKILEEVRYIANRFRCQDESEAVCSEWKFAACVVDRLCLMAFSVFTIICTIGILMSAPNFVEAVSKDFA

For `O=C(N[C@H]1CN2CCC1CC2)c1cc2cccc(Br)n2c1`, the EC50 was 1780 nM.
